Here are results for 1 compound from patent publication US6380267B1, “Composition and method for decreasing neurologic symptomatology” (priority 1999, dated 2002).

Common to all, as to format: in vivo, human
The subject of series [1] is patient who had Parkinson's Disease with tremor at rest and gait disturbance. As to the kind of experiment: Treatment of a Parkinson's Disease patient with tremor at rest and gait disturbance with sildenafil (Example II). To be noted: one patient. The procedure: A patient who had Parkinson's Disease for fifteen years and who suffered from tremor at rest and gait disturbance was treated with the method for decreasing neurologic symptomatology according to the present invention. […] The patient was initially treated with 25 mg of sildenafil per day.

Series [2] deals with patient who had Parkinson's Disease and severe dyskinesia. As to the kind of experiment: Treatment of a Parkinson's Disease patient with severe dyskinesia with sildenafil (Example I). The following applies: one patient. On the procedure: A patient who had Parkinson's Disease for twelve years and who suffered from severe dyskinesia affecting all their extremities and their head and neck for five years was treated with the method for decreasing neurologic symptomatology according to the present invention. […] The patient was initially treated with 50 mg of sildenafil per day.

Series [3] has as its system patients with Parkinson's Disease and dyskinesias. As to the kind of experiment: Treatment of seven patients with Parkinson's Disease and dyskinesias with sildenafil (Example III).
Experimental: Seven additional patients with Parkinson's Disease and dyskinesias were treated with sildenafil at a dose of 25 mg per day in addition to their usual Parkinson's Disease medications. The patents were all Caucasian and ranged in age from between 55 to 70 years. Four of the patients were men and three were women.
The mark [4] stands for this setting: 25 mg sildenafil per day, after five months of treatment, on levodopa.

Take `CCCc1nn(C)c2c(=O)[nH]c(-c3cc(S(=O)(=O)N4CCN(C)CC4)ccc3OCC)nc12` [sildenafil]: in series [1] (setting [4]), the gait disturbance result is recorded as “improved significantly” and the tremor result is “ceased”. Further, the “signs and symptoms of Parkinson's Disease” value in series [1] (after more than seven months of treatment, sildenafil 25 mg three times per day, levodopa 250 mg per day) is reported as “significantly improved”. Further, the dyskinesias during treatment entry in series [2] (50 mg sildenafil per day initially, on levodopa) was “significantly reduced”. The “signs and symptoms of Parkinson's Disease” value in series [2] (after more than one year of treatment, sildenafil decreased to 25 mg, levodopa 300-400 mg per day) is “significantly improved”. In series [3] (25 mg per day), the “patients reporting facial flushing” value is listed as “one”, the “patients with any significant side effects of sildenafil treatment” value is “None” and the “patients with any worsening of their Parkinson's Disease symptoms” value is reported as “None”. Also, the “patients with significant improvement in their dyskinesias” value in series [3] (25 mg per day in addition to usual Parkinson's Disease medications) was “Five of the seven”.
